The nature of assay [1]: LPS binding assay (BODIPY-TR-cadaverine displacement). On the set-up: species or system E. coli. Conditions: peptide concentration higher than 4 μM; 50 μg/mL LPS, 5 μg/mL BODIPY-TR cadaverine, Tris 50 mM pH 7.4; 100% = 10 μg/mL polymyxin B. The protocol:
The abilities of the antimicrobial peptides to bind LPS were determined using the fluorescent dye BODIPY-TR-cadaverine (BC) substitution method. LPS (50 μg/mL) from E. coli O111:B4 was incubated with BC (5 μg/mL) in Tris buffer (50 mm, pH 7.4) for 4 h. Next, 50 μL of various concentrations of peptides (final concentration of 1–64 μM) and 50 μL of LPS-BC mixture were added to 96-well plates, and the fluorescence was measured using a fluorescence spectrophotometer (Infinite 200 pro, Tecan, China) at an excitation wavelength of 580 nm and an emission wavelength of 620 nm. Each test was performed three times. The values were converted to %∆F (AU) using the following equation:%ΔF (AU) = [(Fobs − F0)/(F100 − F0)] × 100 where Fobs is the fluorescence value measured in the presence of the peptide, F0 is the initial fluorescence of LPS with BC without the addition of peptides, F100 is the fluorescence value produced by adding 10 μg/mL polymyxin B.

Assay [2] deals with E. coli ATCC25922. Kind of assay: Swimming motility assay. The format is cell-based. Conditions: E. coli ATCC25922, 0.3% agar, 1–8 μM peptide, 37 °C, 20 h; versus untreated control. As for the experimental part:
The cell motility assay was performed on LB medium containing 0.3% agar. The peptides were added to 10 mL of medium at final concentrations of 1–8 μM. After mixing well, the mixtures were poured into 6-well plates and dried for 2 h. Subsequently, an overnight culture of E. coli ATCC 25922 was inoculated in the center of the movement plate. After incubation at 37 °C for 20 h, images were taken using a FluoroChemQ system (Cell biosciences, San Jose, CA, USA). The experiment was independently repeated three times.

Assay [3] has as its system E. coli ATCC25922. Kind of assay: Membrane depolarization (diSC3-5). The format is cell-based. To be noted: E. coli ATCC25922, 0.5, 1 and 2×MIC. The protocol:
The effects of the antimicrobial peptides on the plasma membrane potential were determined used cell membrane potential-sensitive fluorescent dye diSC3-5. Briefly, E. coli ATCC25922 cells were incubated in MHB to mid-log phase at 37 °C, rinsed 3 times with HEPES buffer, adjusted to an OD600 of 0.05. Next, KCl was used to adjust the final concentration to 0.4 μM and diSC3-5 was added. The mixture was incubated for 30 min at 37 °C. The antibacterial peptides at concentrations of 0.5, 1 and 2×MIC were then added to a cuvette containing 2 mL of bacterial solution, and the fluorescence change was recorded from 0 to 600 s with an F-4500 fluorescence spectrophotometer (Hitachi, Tokyo, Japan) (excitation λ = 622 nm, emission λ = 670 nm). Bacteria without antimicrobial peptides were used to determine the background fluorescence.

Assay [4] relates to methicillin-resistant S. aureus ATCC43300. In words: microbe, parasite or virus in culture. Conditions: ATCC43300, 24 h. The procedure, abridged:
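Broth microdilution in MHB, inoculum ~1 × 10^5 CFU/mL from log-phase cultures, peptides 0.25–128 μM in 0.01% acetic acid/0.2% BSA. After 24 h at 37 °C, absorbance at 492 nm was read. MIC was the lowest concentration with no absorbance increase over the microbe-free control, from three independent experiments.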

Where a SMILES comes first, the peptide text is derived from it. [ ]: non-standard residue; d: D form. Bounds are passed on as bounds.

On to `CC(C)[C@H](NC(=O)CNC(=O)[C@H]1CCCN1C(=O)[C@@H](NC(=O)[C@H](Cc1c[nH]cn1)NC(=O)[C@@H](NC(=O)[C@H](Cc1c[nH]cn1)NC(=O)[C@@H](NC(=O)[C@H](CCCNC(=N)N)NC(=O)[C@@H](N)CCCNC(=N)N)C(C)C)C(C)C)C(C)C)C(=O)N[C@@H](Cc1c[nH]cn1)C(=O)N[C@H](C(=O)N[C@@H](Cc1c[nH]cn1)C(=O)N[C@H](C(=O)N[C@@H](CCCNC(=N)N)C(=O)N[C@@H](CCCNC(=N)N)C(N)=O)C(C)C)C(C)C` [HV2] (H-RRVHVHV[dP]GVHVHVRR-NH2; N-terminus assumed), for which the “LPS binding ability relative to binding activity of polymyxin B” value in assay [1] was “higher than 60%”. Also, in the assay on E. coli ATCC25922 [2], the “swimming motility (diameter of swimming bacteria)” value is “significantly reduced the diameter of the swimming bacteria”. Further, the “plasma membrane depolarization (diSC3-5 release)” value in the assay on E. coli ATCC25922 [3] was “more rapid and stronger plasma membrane depolarization relative to PG-1”. In assay [4], this compound displayed an MIC of more than 128 µM.

Source of the values: PMC6718988, “Bioactivity and Bactericidal Mechanism of Histidine-Rich β-Hairpin Peptide Against Gram-Negative Bacteria” (International Journal of Molecular Sciences, 2019).
